Consider 26 compounds from patent US12559474B2, “Triazine derivatives having virus replication inhibitory activity and pharmaceutical composition comprising the same” (priority 2021, dated 2026).

The test deals with SARS-CoV-2 3CL protease (Severe acute respiratory syndrome coronavirus 2, UniProt P0DTD1). Kind of test: biochemical.
The mark [1] stands for this setting: 50% SARS-CoV-2 3CL protease inhibitory concentration, given as class symbols, read-out: IC50.

Read-outs that look alike come from different tables or passages of the source.

As for `Cn1cnc(Cn2c(=O)nc(Nc3cc4cn([C@H]5CC[C@H](N)CC5)nc4cc3Cl)n(Cc3cc(Cl)c(F)cc3F)c2=O)n1` [II-0531], the IC50 (usually the concentration that gives 50% inhibition) (IC50) was < 100 nM.
Turning to `Cn1cnc(Cn2c(=O)nc(Nc3cc4cn(C5CCNCC5)nc4cc3Cl)n(Cc3cc(Cl)c(F)cc3F)c2=O)n1` [II-0532], where the note is “IC50”, the IC50 was < 100 nM.
The same measure, in the same setting: then `Cn1cnc(Cn2c(=O)nc(Nc3cc4cn(CC(F)F)nc4cc3Cl)n(Cc3cc(Cl)c(F)cn3)c2=O)n1` [II-0540], with < 100 nM; and `Cn1cnc(Cn2c(=O)nc(Nc3cc4cn(C)nc4cc3Cl)n(Cc3cc(Cl)c(F)cn3)c2=O)n1` [II-0542], with < 100 nM.
In the case of `Cn1cnc(Cn2c(=O)nc(Nc3cc4cn(CC(F)F)nc4cc3Cl)n(Cc3ccc(F)c(C#N)c3)c2=O)n1` [II-0549], the IC50 (IC50) was < 100 nM.
Turning to `Cn1cnc(Cn2c(=O)nc(Nc3cc4cn(CC5(N)CC5)nc4cc3Cl)n(Cc3cc(Cl)c(F)cc3F)c2=O)n1` [II-0557], under setting [1], the IC50 was < 100 nM.
In the case of `Cn1cnc(Cn2c(=O)nc(Nc3cc4cn(CC5(N)CC5)nc4cc3Cl)n(Cc3cc(F)c(F)c(Cl)c3)c2=O)n1` [II-0558], the IC50 under setting [1] is < 100 nM.
Regarding `CN(C)C(=O)CCn1cc2cc(Nc3nc(=O)n(Cc4ncn(C)n4)c(=O)n3Cc3cc(F)c(F)c(Cl)c3)c(Cl)cc2n1` [II-0561], the IC50 (IC50) was < 100 nM.
`Cc1cncc(-n2c(=O)nc(Nc3ccc(N=S(C)(C)=O)cc3Cl)n(Cc3ccc(F)c(C#N)c3)c2=O)c1` [II-0575]: where the note is “IC50”, the half-maximal inhibitory concentration (IC50) is < 100 nM.
Consider `CC(=O)Nc1ccc(C#N)cc1Cn1c(Nc2cc3cn(C)nc3cc2Cl)nc(=O)n(-c2cncc(C)c2)c1=O` [II-0594], for which the IC50 (IC50) was determined as 270 nM.
As for `CNc1nc2cc(Cl)c(Nc3nc(=O)n(Cc4ncn(C)n4)c(=O)n3Cc3ccc(F)c(C#N)c3)cc2s1` [II-0603], the IC50 (IC50) was < 100 nM.
The same measure, in the same setting: then `Cn1cnc(Cn2c(=O)nc(Nc3cc4cn(C)nc4cc3Cl)n(CC3CCCC3)c2=O)n1` [II-0605], with 1000 to 10000 nM; and `Cn1cnc(Cn2c(=O)nc(Nc3cc4cn(C)nc4cc3Cl)n(CC3CCCCC3)c2=O)n1` [II-0606], with 100 to 1000 nM.
Same read-out and setting: as for `Cn1cnc(Cn2c(=O)nc(Nc3cc4cn(C)nc4cc3Cl)n(CC3CCC(F)(F)CC3)c2=O)n1` [II-0607], the figure is 100 to 1000 nM; as for `CC(=O)Nc1snc2cc(Cl)c(Nc3nc(=O)n(Cc4ncn(C)n4)c(=O)n3Cc3cc(Cl)c(F)cc3F)cc12` [II-0610], < 100 nM.
Turning to `Cc1cncc(-n2c(=O)nc(Nc3cc4cn(CCN)nc4cc3Cl)n(Cc3cc(Cl)ccc3Cl)c2=O)c1` [II-0611], the IC50 (IC50) was < 100 nM.
`CNc1cncc(-n2c(=O)nc(Nc3ccc4c(c3)CCO4)n(Cc3cc(F)c(F)cc3F)c2=O)c1` [II-0612]: for the setting “IC50”, the IC50 was < 100 nM.
Turning to `CNc1cncc(-n2c(=O)nc(Nc3cc4c(cc3Cl)OCC4)n(Cc3cc(F)c(F)cc3F)c2=O)c1` [II-0613], where the note is “IC50”, the IC50 was < 100 nM.
In the case of `Cc1cncc(-n2c(=O)nc(Nc3ccc(N=S4(=O)CCCC4)cc3C(F)(F)F)n(Cc3cc(Cl)ccc3C)c2=O)c1` [II-0614], the IC50 (IC50) was < 100 nM.
In the case of `Cc1cncc(-n2c(=O)nc(Nc3ccc(N=S4(=O)CCCC4)c(Cl)c3)n(Cc3cc(Cl)ccc3C)c2=O)c1` [II-0615], the half-maximal inhibitory concentration (IC50) (IC50) was < 100 nM.
Regarding `Cc1cncc(-n2c(=O)nc(Nc3ccc(N=S4(=O)CCCC4)cc3F)n(Cc3cc(Cl)ccc3C)c2=O)c1` [II-0616], the IC50 (IC50) was < 100 nM.
For the compound `Cc1cncc(-n2c(=O)nc(Nc3ccc(N=S4(=O)CCCC4)c(Cl)c3Cl)n(Cc3cc(Cl)ccc3C)c2=O)c1` [II-0617], the IC50 (IC50) was < 100 nM.
Same read-out and setting: as for `Cc1cncc(-n2c(=O)nc(Nc3ccc(N=S4(=O)CCCC4)cc3)n(Cc3cc(Cl)ccc3C)c2=O)c1` [II-0618], the figure is < 100 nM; as for `Cc1cncc(-n2c(=O)nc(Nc3cc(Cl)c(N=S4(=O)CCCC4)cc3Cl)n(Cc3cc(Cl)ccc3C)c2=O)c1` [II-0619], < 100 nM; as for `Cc1cncc(-n2c(=O)nc(Nc3cc(F)c(N=S4(=O)CCCC4)cc3Cl)n(Cc3cc(Cl)ccc3C)c2=O)c1` [II-0620], < 100 nM.
`CCS(=O)(CC)=Nc1ccc(Nc2nc(=O)n(-c3cncc(C)c3)c(=O)n2Cc2cc(Cl)ccc2C)c(Cl)c1` [II-0621]: the IC50 (IC50) is < 100 nM.
